Measured values: US10689378B2, “Triazolopyridine compounds and uses thereof” (Novartis AG, priority 2016, dated 2020)
Read-outs that look alike come from different tables or passages of the source.

What was measured:
[1] = molecular target: wild type PRC2 (wtPRC2) complex (Homo sapiens, UniProt O75530); assay: EED LC-MS assay (SAH production by PRC2); type: biochemical
Outline: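 Pentameric PRC2 (EZH2, SUZ12, EED, Rbap48, AEBP), 12 nM final, preincubated 20 min with compound and SAM, then 1.5 μM biotinylated H3K27me0 peptide, 1 μM SAM, pH 8.0, 120 min at rt. SAH quantified by LC-MS/MS with d4-SAH; control-normalized activity fitted for IC50.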

EED (1-441)-His protein = molecular target: T1, EED (1-441)-His protein (Homo sapiens, UniProt O75530); assay: EED-H3K27Me3 peptide competition binding assay by AlphaScreen
T1 construct: 30 nM EED (1-441)-His protein
Outline: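 Serially diluted compound (12 points, 3-fold) incubated 20 min with 30 nM EED(1-441)-His and 15 nM biotin-H3K27Me3(19-33) peptide in 25 mM HEPES pH 8, 0.02% Tween-20, 0.5% BSA. Ni-chelate acceptor/streptavidin donor beads (10 μg/mL each) added, 1 h rt dark; 615 nm emission normalized to controls, dose-response fit for IC50.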

[2] = system: H3K27 methylation in G401 cell; assay: ELISA (H3K27 methylation) assay in G401 cells; type: cell-based, human; conditions: Homo sapiens
Outline: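 G401 cells treated 48 h with 3-fold dilutions (8 or 12 points, top 20 μM). Acid-extracted histones probed by ELISA for H3K27me3 or H3K27me2 with ECL readout, normalized to total H3. Percent inhibition versus DMSO fitted to dose-response curve for IC50.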

[3] = PRC2 LC-MS assay, read-out: (b) IC50 EED LC-MS Qualified
[4] = EED-H3K27Me3 peptide competition, AlphaScreen, read-out: (a) IC50 EED Alphascreen binding Qualified
[5] = G-401, H3K27 methylation ELISA, read-out: (c) IC50 ELISA Qualified
[6] = read-out: (b) IC50, EED LC-MS Qualified
[7] = read-out: (a) IC50, EED Alphascreen binding Qualified
[8] = G-401, read-out: (c) IC50, ELISA Qualified

T1 sequence (O75530 whole entry): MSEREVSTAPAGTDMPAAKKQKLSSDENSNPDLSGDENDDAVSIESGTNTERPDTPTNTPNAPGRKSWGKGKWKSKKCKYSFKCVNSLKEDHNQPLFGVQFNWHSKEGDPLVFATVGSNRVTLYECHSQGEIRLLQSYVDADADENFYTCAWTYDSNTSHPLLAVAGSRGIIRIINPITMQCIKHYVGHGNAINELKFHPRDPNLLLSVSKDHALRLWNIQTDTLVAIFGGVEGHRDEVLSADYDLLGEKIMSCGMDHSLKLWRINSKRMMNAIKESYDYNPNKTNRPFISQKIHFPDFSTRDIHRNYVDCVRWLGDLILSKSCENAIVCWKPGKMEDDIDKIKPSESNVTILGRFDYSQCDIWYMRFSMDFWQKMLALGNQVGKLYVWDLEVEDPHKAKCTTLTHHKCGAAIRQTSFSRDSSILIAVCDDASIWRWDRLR
wild type PRC2 (wtPRC2) complex, sequence (O75530 whole entry): as above
wild type PRC2 (wtPRC2) complex, sequence (Q15910 whole entry partner): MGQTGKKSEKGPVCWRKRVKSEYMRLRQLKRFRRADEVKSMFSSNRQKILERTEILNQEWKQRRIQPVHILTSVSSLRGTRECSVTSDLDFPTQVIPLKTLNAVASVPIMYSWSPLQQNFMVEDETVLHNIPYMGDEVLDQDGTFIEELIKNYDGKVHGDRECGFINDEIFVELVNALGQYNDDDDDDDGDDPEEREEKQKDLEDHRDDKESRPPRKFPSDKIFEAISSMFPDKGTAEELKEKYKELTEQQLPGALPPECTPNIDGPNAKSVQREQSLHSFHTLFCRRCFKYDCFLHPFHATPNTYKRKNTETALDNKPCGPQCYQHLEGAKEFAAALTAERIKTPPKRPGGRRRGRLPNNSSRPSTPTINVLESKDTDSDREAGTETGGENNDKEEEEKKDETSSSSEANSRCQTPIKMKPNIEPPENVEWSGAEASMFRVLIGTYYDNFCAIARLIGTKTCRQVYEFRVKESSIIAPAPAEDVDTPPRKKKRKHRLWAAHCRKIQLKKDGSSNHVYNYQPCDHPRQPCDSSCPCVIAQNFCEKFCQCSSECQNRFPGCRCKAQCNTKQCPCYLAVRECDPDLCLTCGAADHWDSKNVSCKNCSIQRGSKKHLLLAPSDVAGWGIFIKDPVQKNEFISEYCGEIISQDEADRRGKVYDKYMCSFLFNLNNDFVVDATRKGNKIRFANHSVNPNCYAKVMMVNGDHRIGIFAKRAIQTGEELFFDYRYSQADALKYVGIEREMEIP
wild type PRC2 (wtPRC2) complex, sequence (Q15022 whole entry partner): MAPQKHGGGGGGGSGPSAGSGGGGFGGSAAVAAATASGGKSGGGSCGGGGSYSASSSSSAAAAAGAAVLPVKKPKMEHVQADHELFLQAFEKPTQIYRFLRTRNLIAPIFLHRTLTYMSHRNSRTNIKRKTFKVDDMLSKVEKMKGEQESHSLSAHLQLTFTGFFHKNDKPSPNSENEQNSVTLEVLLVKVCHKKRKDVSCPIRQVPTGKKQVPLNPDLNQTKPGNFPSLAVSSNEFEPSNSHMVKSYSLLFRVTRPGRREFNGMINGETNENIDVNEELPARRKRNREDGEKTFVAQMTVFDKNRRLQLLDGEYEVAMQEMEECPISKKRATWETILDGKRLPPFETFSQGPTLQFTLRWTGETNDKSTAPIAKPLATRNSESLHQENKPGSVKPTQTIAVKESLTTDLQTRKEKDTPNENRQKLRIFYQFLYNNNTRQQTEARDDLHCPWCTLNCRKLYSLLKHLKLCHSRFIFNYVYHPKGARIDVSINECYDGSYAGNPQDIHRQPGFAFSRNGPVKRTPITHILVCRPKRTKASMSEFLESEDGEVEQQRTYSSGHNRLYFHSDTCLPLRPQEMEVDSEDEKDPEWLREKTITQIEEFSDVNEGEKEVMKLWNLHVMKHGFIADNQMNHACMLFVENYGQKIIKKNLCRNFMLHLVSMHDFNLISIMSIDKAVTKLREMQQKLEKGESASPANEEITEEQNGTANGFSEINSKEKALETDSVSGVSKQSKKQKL
wild type PRC2 (wtPRC2) complex, sequence (Q09028 whole entry partner): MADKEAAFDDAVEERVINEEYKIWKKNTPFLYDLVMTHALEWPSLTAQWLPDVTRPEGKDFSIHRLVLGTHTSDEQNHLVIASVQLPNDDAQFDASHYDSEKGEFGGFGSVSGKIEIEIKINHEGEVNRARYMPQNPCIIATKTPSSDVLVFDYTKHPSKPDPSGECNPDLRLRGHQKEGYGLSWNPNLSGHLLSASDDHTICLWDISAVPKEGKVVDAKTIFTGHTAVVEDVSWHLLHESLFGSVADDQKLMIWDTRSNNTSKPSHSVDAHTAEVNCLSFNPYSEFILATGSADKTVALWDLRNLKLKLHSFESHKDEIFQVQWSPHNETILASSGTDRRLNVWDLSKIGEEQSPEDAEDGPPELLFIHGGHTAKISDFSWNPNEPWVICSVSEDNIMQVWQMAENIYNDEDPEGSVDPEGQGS
wild type PRC2 (wtPRC2) complex, sequence (Q6ZN18 whole entry partner): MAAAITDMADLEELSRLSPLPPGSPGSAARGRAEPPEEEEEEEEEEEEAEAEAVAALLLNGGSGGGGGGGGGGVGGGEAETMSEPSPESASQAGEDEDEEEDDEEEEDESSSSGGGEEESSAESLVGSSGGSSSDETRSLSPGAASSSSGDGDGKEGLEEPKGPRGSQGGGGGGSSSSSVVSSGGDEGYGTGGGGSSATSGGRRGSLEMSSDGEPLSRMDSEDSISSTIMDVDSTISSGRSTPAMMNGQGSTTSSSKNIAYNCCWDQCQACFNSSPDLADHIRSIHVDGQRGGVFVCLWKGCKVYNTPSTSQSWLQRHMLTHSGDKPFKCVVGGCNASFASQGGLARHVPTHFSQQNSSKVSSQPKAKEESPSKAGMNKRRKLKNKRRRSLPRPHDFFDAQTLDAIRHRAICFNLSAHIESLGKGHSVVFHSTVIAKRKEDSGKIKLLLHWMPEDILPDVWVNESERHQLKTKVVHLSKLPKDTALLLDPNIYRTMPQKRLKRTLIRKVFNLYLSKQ

Compound | IC50 [1, 3] [nM] | IC50 (EED (1-441)-His protein; [4]) [nM] | IC50 [2, 5] [nM] | IC50 [1, 6] [nM] | IC50 (EED (1-441)-His protein; [7]) [nM] | IC50 [2, 8] [nM] | other results
COc1cccc(F)c1CNc1ccc(-c2ccc(O)nc2C)c2nncn12 [Example 309, 5-(5-((2-fluoro-6-methoxybenzyl)amino)-[1,2,4]triazolo[4,3-a]pyridin-8-yl)-6-methylpyridin-2-ol] | 60.6 | 15.8 | 11.6 |  |  |  | 
COc1ccccc1CNc1ccc(-c2ccncc2)c2nncn12 [Example 24, N-(2-methoxybenzyl)-8-(pyridin-4-yl)-[1,2,4] triazolo[4,3-a]pyridin-5-amine] |  |  |  | 92.1 | 46.4 | 47.8 | 
COc1ncccc1CNc1ccc(-c2cnc(C)nc2C)c2nncn12 [Example 348, 8-(2,4-dimethylpyrimidin-5-yl)-N-((2-methoxypyridin-3-yl)methyl)-[1,2,4]triazolo [4,3-a]pyridin-5-amine] |  |  |  |  |  |  | IC50 ([1]; read-out: (b) IC50 EED LC-MS Qualified): 209 nM; IC50 (EED (1-441)-His protein; read-out: (a) IC50 EED Alphascreen binding Qualified): 85.1 nM; IC50 ([2]; G-401, read-out: (c) IC50 ELISA Qualified): 45.5 nM
COc1cccc(F)c1CNc1ccc(-c2ccc(N(C)S(C)(=O)=O)cc2)c2nncn12 [Example 154, N-(4-(5-((2-fluoro-6-methoxybenzyl)amino)-[1,2,4]triazolo[4,3-a]pyridin-8-yl)phenyl)-N-methyl methanesulfonamide] |  |  |  | 83.4 | 4.5 | 4.9 | 
COc1cccc(F)c1CNc1ccc(-c2ccc(S(=O)(=O)C3CCNCC3)nc2)c2nncn12 [Example 179, N-(2-fluoro-6-methoxybenzyl)-8-(6-(piperidin-4-ylsulfonyl)pyridin-3-yl)-[1,2,4]triazolo[4,3-a]pyridin-5-amine] | 174 | 24.8 | 13.2 |  |  |  | 

Continued, in another order:

IC50 [1, 3] [nM] | IC50 (EED (1-441)-His protein; [4]) [nM] | IC50 [2, 5] [nM] | IC50 [1, 6] [nM] | IC50 (EED (1-441)-His protein; [7]) [nM] | IC50 [2, 8] [nM] | Compound | other results
131 | 45.5 | 40.2 |  |  |  | COc1cc(F)cc(F)c1CNc1ccc(-c2c(C)noc2C)c2nncn12 [Example 227, N-(2,4-difluoro-6-methoxybenzyl)-8-(3,5-dimethylisoxazol-4-yl)-[1,2,4] triazolo[4,3-a]pyridin-5-amine] | 
15.7 | 10.7 | 8.1 |  |  |  | COc1cccc(F)c1CNc1ccc(-c2cn(C(C)C)nc2C)c2nncn12 [Example 282, N-(2-fluoro-6-methoxybenzyl)-8-(1-isopropyl-3-methyl-1H-pyrazol-4-yl)-[1,2,4]triazolo[4,3-a]pyridin-5-amine] | 
 |  |  | 149 | 90.9 | 57 | COc1cccc(F)c1CNc1ccc(-c2ncccc2C)c2nncn12 [Example 6, N-(2-Fluoro-6-methoxybenzyl)-8-(3-methylpyridin-2-yl)-[1,2,4]triazolo[4,3-a]pyridin-5-amine] | 
 |  |  | 587 | 169 | 363 | CN(C)Cc1ccc(-c2ccc(NCc3ccccc3OC(F)F)n3cnnc23)cc1 [Example 19, N-(2-(difluoromethoxy)benzyl)-8-(4-((dimethylamino)methyl)phenyl)-[1,2,4]triazolo[4,3-a] pyridin-5-amine] | 
41.9 | 22.7 | 12.4 |  |  |  | COc1cccc(F)c1CNc1ccc(-c2ccc(C)nc2C)c2nncn12 [Example 249, 8-(2,6-dimethylpyridin-3-yl)-N-(2-fluoro-6-methoxybenzyl)-[1,2,4]triazolo[4,3-a] pyridin-5-amine] | 
348 | 88.8 | 118 |  |  |  | COc1cccc(F)c1CNc1ccc(-c2ccccc2Cl)c2nncn12 [Example 192, 8-(2-chlorophenyl)-N-(2-fluoro-6-methoxybenzyl)-[1,2,4]triazolo[4,3-a]pyridin-5-amine] | 
 |  |  | 62.3 | 26.5 | 41.1 | COc1ccccc1CNc1ccc(-c2cccc(CCN(C)C)c2)c2nncn12 [Example 94, 8-(3-(2-(dimethylamino)ethyl)phenyl)-N-(2-methoxybenzyl)-[1,2,4]triazolo[4,3-a] pyridin-5-amine] | 
 |  |  | 305 | 24.9 | 47.4 | COc1ccccc1CNc1ccc(-c2ccc(C(=O)N(C)C)cc2)c2nncn12 [Example 41, 4-(5-((2-methoxybenzyl)amino)-[1,2,4]triazolo[4,3-a]pyridin-8-yl)-N,N-dimethyl benzamide] | 
